Source: patent publication US20060069132A1, “Azolecarboxamide herbicides” (priority 2004, published 2006)

Columns and labels:
quackgrass = test: Test E pre-/postemergence herbicide test; type: in vivo, Elytrigia repens; details: Preemergence
Method in brief: (§1)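 Test chemicals in a non-phytotoxic solvent mixture with surfactant applied preemergence to planted seeds and postemergence to plants 2 to 18 cm tall (1- to 4-leaf stage). After 12 to 14 days in the greenhouse, injury rated visually against untreated controls on a 0–100 scale (0 no effect, 100 complete control).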

blackgrass = test: Test C postemergence herbicide test; type: in vivo, Alopecurus myosuroides
Method in brief: (§2)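 Postemergence sprays applied to plants 2 to 18 cm tall (1- to 4-leaf stage); paddy species grown to 2-leaf stage under flooding. After 12 to 14 days in greenhouse, visual rating versus untreated controls on 0–100 scale (0 no effect, 100 complete control).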

Italian ryegrass = test: Test E pre-/postemergence herbicide test; type: in vivo, Lolium multiflorum; details: Preemergence
Method in brief: as §1

johnsongrass = test: Test E pre-/postemergence herbicide test; type: in vivo, Sorghum halepense; details: Preemergence
Method in brief: as §1

downy bromegrass = test: Test C postemergence herbicide test; type: in vivo, Bromus tectorum
Method in brief: as §2

mustard = test: Test E pre-/postemergence herbicide test; type: in vivo, Brassica nigra; details: Preemergence
Method in brief: as §1

barnyardgrass = test: Test E pre-/postemergence herbicide test; type: in vivo, Echinochloa crus-galli; details: Preemergence
Method in brief: as §1

large crabgrass = test: Test E pre-/postemergence herbicide test; type: in vivo, Digitaria sanguinalis; details: Preemergence
Method in brief: as §1

prickly sida = test: Test E pre-/postemergence herbicide test; type: in vivo, Sida spinosa; details: Preemergence
Method in brief: as §1

common purslane = test: Test E pre-/postemergence herbicide test; type: in vivo, Portulaca oleracea; details: Preemergence
Method in brief: as §1

itchgrass = test: Test E pre-/postemergence herbicide test; type: in vivo, Rottboellia cochinchinensis; details: Preemergence
Method in brief: as §1

chickweed = test: Test C postemergence herbicide test; type: in vivo, Stellaria media
Method in brief: as §2

wheat = test: Test C postemergence herbicide test; type: in vivo, Triticum aestivum
Method in brief: as §2

broadleaf signalgrass = test: Test E pre-/postemergence herbicide test; type: in vivo, Brachiaria platyphylla; details: Preemergence
Method in brief: as §1

[1] = 125 g ai/ha, scale 0 (no effect) to 100 (complete control)
[2] = 250 g ai/ha, scale 0 (no effect) to 100 (complete control)
[3] = 500 g ai/ha, scale 0 (no effect) to 100 (complete control)
[4] = Postemergence, 500 g ai/ha, scale 0 to 100
[5] = Postemergence, 250 g ai/ha, scale 0 to 100, 0 no effect, 100 complete control
[6] = postemergence, 125 g ai/ha, scale 0 to 100
[7] = postemergence, 62 g ai/ha, scale 0 to 100

## CCNC(=O)c1cccc(NC(=O)c2cc(C(C)(C)C)nn2CC)n1 [Compound 144]
quackgrass; 62 g ai/ha, scale 0 to 100
  Plant response rating, Quackgrass: 10
quackgrass; [1]
  Plant response rating, Quackgrass: 30
quackgrass; [2]
  Plant response rating, Quackgrass: 70
quackgrass; [3]
  Plant response rating, Quackgrass: 80
blackgrass; [4]
  Blackgrass plant response rating: 40
blackgrass; [5]
  Plant response rating, Blackgrass: 40
blackgrass; [6]
  Plant response rating, Blackgrass: 30
blackgrass; [7]
  Plant response rating, Blackgrass: 30
Italian ryegrass; 62 g ai/ha, scale 0 to 100
  Plant response rating, Ryegrass, Italian: 10
Italian ryegrass; [1]
  Plant response rating, Ryegrass, Italian: 60
Italian ryegrass; [2]
  Plant response rating, Ryegrass, Italian: 80
Italian ryegrass; [3]
  Plant response rating, Ryegrass, Italian: 95
johnsongrass; 62 g ai/ha, scale 0 to 100
  Plant response rating, Johnsongrass: 30
johnsongrass; [1]
  Plant response rating, Johnsongrass: 50
johnsongrass; [2]
  Plant response rating, Johnsongrass: 60
johnsongrass; [3]
  Plant response rating, Johnsongrass: 60
Downy bromegrass; [4]
  Bromegrass, Downy plant response rating: 40
Downy bromegrass; [5]
  Plant response rating, Bromegrass, Downy: 40
Downy bromegrass; [6]
  Plant response rating, Bromegrass, Downy: 40
Downy bromegrass; [7]
  Plant response rating, Bromegrass, Downy: 20
mustard; 62 g ai/ha, scale 0 to 100
  Plant response rating, Black Mustard: 20
mustard; [1]
  Plant response rating, Black Mustard: 70
mustard; [2]
  Plant response rating, Black Mustard: 75
mustard; [3]
  Plant response rating, Black Mustard: 100
barnyardgrass; 62 g ai/ha, scale 0 to 100
  Plant response rating, Barnyardgrass: 30
barnyardgrass; [1]
  Plant response rating, Barnyardgrass: 60
barnyardgrass; [2]
  Plant response rating, Barnyardgrass: 80
barnyardgrass; [3]
  Plant response rating, Barnyardgrass: 90
Large crabgrass; 62 g ai/ha, scale 0 to 100
  Plant response rating, Crabgrass, Large: 0
Large crabgrass; [1]
  Plant response rating, Crabgrass, Large: 40
Large crabgrass; [2]
  Plant response rating, Crabgrass, Large: 50
Large crabgrass; [3]
  Plant response rating, Crabgrass, Large: 60
Prickly sida; 62 g ai/ha, scale 0 to 100
  Plant response rating, Prickly Sida: 10
Prickly sida; [1]
  Plant response rating, Prickly Sida: 90
Prickly sida; [2]
  Plant response rating, Prickly Sida: 90
Prickly sida; [3]
  Plant response rating, Prickly Sida: 95
Common purslane; 62 g ai/ha, scale 0 to 100
  Plant response rating, Purslane: 0
Common purslane; [1]
  Plant response rating, Purslane: 20
Common purslane; [2]
  Plant response rating, Purslane: 90
Common purslane; [3]
  Plant response rating, Purslane: 100
itchgrass; 62 g ai/ha, scale 0 to 100
  Plant response rating, Itchgrass: 20
itchgrass; [1]
  Plant response rating, Itchgrass: 70
itchgrass; [2]
  Plant response rating, Itchgrass: 70
itchgrass; [3]
  Plant response rating, Itchgrass: 75
chickweed; [4]
  Chickweed plant response rating: 100
chickweed; [5]
  Plant response rating, Chickweed: 100
chickweed; [6]
  Plant response rating, Chickweed: 100
chickweed; [7]
  Plant response rating, Chickweed: 100
wheat; [4]
  Wheat plant response rating: 30
wheat; [5]
  Plant response rating, Wheat: 30
wheat; [6]
  Plant response rating, Wheat: 30
wheat; [7]
  Plant response rating, Wheat: 20
Broadleaf signalgrass; 62 g ai/ha, scale 0 to 100
  Plant response rating, Signalgrass: 10
Broadleaf signalgrass; [1]
  Plant response rating, Signalgrass: 20
Broadleaf signalgrass; [2]
  Plant response rating, Signalgrass: 30
Broadleaf signalgrass; [3]
  Plant response rating, Signalgrass: 50

## CCc1nn(C(C)C)nc1C(=O)Nc1cccc(C(=O)N2CCCCC2)c1 [Compound 385]
quackgrass; 62 g ai/ha, scale 0 to 100
  Plant response rating, Quackgrass: 10
quackgrass; 125 g ai/ha, scale 0 to 100
  Plant response rating, Quackgrass: 20
quackgrass; [2]
  Plant response rating, Quackgrass: 30
Italian ryegrass; 62 g ai/ha, scale 0 to 100
  Plant response rating, Ryegrass, Italian: 10
Italian ryegrass; 125 g ai/ha, scale 0 to 100
  Plant response rating, Ryegrass, Italian: 30
Italian ryegrass; [2]
  Plant response rating, Ryegrass, Italian: 60
johnsongrass; 62 g ai/ha, scale 0 to 100
  Plant response rating, Johnsongrass: 10
johnsongrass; 125 g ai/ha, scale 0 to 100
  Plant response rating, Johnsongrass: 10
johnsongrass; [2]
  Plant response rating, Johnsongrass: 30
mustard; 62 g ai/ha, scale 0 to 100
  Plant response rating, Black Mustard: 0
mustard; [2]
  Plant response rating, Black Mustard: 30
barnyardgrass; 62 g ai/ha, scale 0 to 100
  Plant response rating, Barnyardgrass: 20
barnyardgrass; 125 g ai/ha, scale 0 to 100
  Plant response rating, Barnyardgrass: 50
barnyardgrass; [2]
  Plant response rating, Barnyardgrass: 70
Large crabgrass; 62 g ai/ha, scale 0 to 100
  Plant response rating, Crabgrass, Large: 80
Large crabgrass; 125 g ai/ha, scale 0 to 100
  Plant response rating, Crabgrass, Large: 80
Large crabgrass; [2]
  Plant response rating, Crabgrass, Large: 80
Prickly sida; 62 g ai/ha, scale 0 to 100
  Plant response rating, Prickly Sida: 10
Prickly sida; 125 g ai/ha, scale 0 to 100
  Plant response rating, Prickly Sida: 100
Prickly sida; [2]
  Plant response rating, Prickly Sida: 100
Common purslane; 62 g ai/ha, scale 0 to 100
  Plant response rating, Purslane: 100
Common purslane; 125 g ai/ha, scale 0 to 100
  Plant response rating, Purslane: 100
Common purslane; [2]
  Plant response rating, Purslane: 100
itchgrass; 62 g ai/ha, scale 0 to 100
  Plant response rating, Itchgrass: 20
itchgrass; 125 g ai/ha, scale 0 to 100
  Plant response rating, Itchgrass: 20
itchgrass; [2]
  Plant response rating, Itchgrass: 20
Broadleaf signalgrass; 62 g ai/ha, scale 0 to 100
  Plant response rating, Signalgrass: 10
Broadleaf signalgrass; 125 g ai/ha, scale 0 to 100
  Plant response rating, Signalgrass: 20
Broadleaf signalgrass; [2]
  Plant response rating, Signalgrass: 20

## CCc1nn(C(C)C)nc1C(=O)Nc1cccc(C(=O)N(C)CC)c1 [Compound 386]
quackgrass; 125 g ai/ha, scale 0 to 100
  Plant response rating, Quackgrass: 80
quackgrass; [2]
  Plant response rating, Quackgrass: 90
Italian ryegrass; 125 g ai/ha, scale 0 to 100
  Plant response rating, Ryegrass, Italian: 60
Italian ryegrass; [2]
  Plant response rating, Ryegrass, Italian: 95
johnsongrass; 125 g ai/ha, scale 0 to 100
  Plant response rating, Johnsongrass: 75
johnsongrass; [2]
  Plant response rating, Johnsongrass: 80
mustard; [2]
  Plant response rating, Black Mustard: 70
barnyardgrass; 125 g ai/ha, scale 0 to 100
  Plant response rating, Barnyardgrass: 80
barnyardgrass; [2]
  Plant response rating, Barnyardgrass: 100
Large crabgrass; 125 g ai/ha, scale 0 to 100
  Plant response rating, Crabgrass, Large: 95
Large crabgrass; [2]
  Plant response rating, Crabgrass, Large: 95
Prickly sida; 125 g ai/ha, scale 0 to 100
  Plant response rating, Prickly Sida: 100
Prickly sida; [2]
  Plant response rating, Prickly Sida: 100
Common purslane; 125 g ai/ha, scale 0 to 100
  Plant response rating, Purslane: 100
Common purslane; [2]
  Plant response rating, Purslane: 100
itchgrass; 125 g ai/ha, scale 0 to 100
  Plant response rating, Itchgrass: 70
itchgrass; [2]
  Plant response rating, Itchgrass: 70
Broadleaf signalgrass; 125 g ai/ha, scale 0 to 100
  Plant response rating, Signalgrass: 30
Broadleaf signalgrass; [2]
  Plant response rating, Signalgrass: 85
